The source of these data is article PMC7618036, “An oral heme oxygenase inhibitor targets immunosuppressive perivascular macrophages in preclinical models of cancer” (Science translational medicine, 2025).

Data set [1] relates to CD8^+ T-cells in MMTV-PyMT tumors. In words: Flow cytometry of the TME of MMTV-PyMT tumors after 36 h treatment. The note with it: single-agent therapy. It is filed as in vivo, mouse. As for the experimental part:
At 36 h post treatment initiation of treatment mice were sacrificed and tumors were harvested and analyzed. (A) Schematic representing the dosing strategy. (B) The fold change of tumor growth over 36 h post initiation of treatment. (C-G) Tumors were enzyme-digested to release single cells which were analyzed for their live (7AAD^-) stromal cell composition using flow cytometry (n=5 tumors per group) (C) and CD8^+ T-cells (D). Gating strategy (left panel) and quantitation of CD8^+ T-cell subsets based on CD62L and CD44 expressions (right panel; TCM; T central memory cells, TEM; T effector memory cells, Teff; T effectors cells) (E), and the ability of the tumoral CD8^+ T-cells to secrete IFNγ post ex vivo exposure to PMA/ionomycin treatment (F). […] Scale bar is 100 µm and white arrows indicate infiltrating CD8^+ T-cells. […] Image in panel (A) was created using BioRender. Bar charts show the mean, error bars SD, and the dots show individual data points from individual tumors and mice. Gemc.; gemcitabine. * P<0.05, ** P<0.01, *** P<0.001.
MN-MCA1 sarcoma cells were orthotopically implanted into syngeneic C57Bl/6 mice for tumors. A total of 2.5 x 10^5 cells in 100 μL RPMI were injected subcutaneously into female mice. […] When tumors became palpable, volumes were measured every 2-4 days using digital caliper measurements of the long (L) and short (S) dimensions of the tumor. […]

Data set [2] has as its system MMTV-PyMT mice. In words: Toxicity evaluation of MMTV-PyMT mice after 21 days of treatment. It is filed as in vivo, mouse. As to conditions: KCL-HO-1i p.o. and/or gemcitabine i.p. As to the method:
(§1) (D-G) The MMTV-PyMT mice in (B) were evaluated for evidence of toxicity, including weight change from treatment initiation (D), end of treatment (day 21) plasma ratio of AST:ALT enzymes (E), blood circulating immune cells assessed using flow cytometry (F) and pathology assessment of inflammatory cell infiltrate in the lungs alongside an additional cohort or WT non-tumor bearing mice given dual treatment for 21 days and then assessed at treatment cessation or 30 days after treatment cessation (G). Image in panel (A) was created using BioRender. Bar charts show the mean, error bars SD, and the dots show individual data points from individual tumors and mice. Line charts display the mean and SEM. Gemc.; gemcitabine. * P<0.05, ** P<0.01.
Tissue sections (3µm) were cut from FFPE tissues from the brain, lung, heart, kidney, and liver of treated animals and mounted onto Plus^+ Frost slides (Solmedia). […] Tissue sections were initially examined unblinded and then re-evaluated blinded to confirm the significant findings ([77]). Findings in the tissue were scored using a non-linear semiquantitative grading system from 0 to 5 where 0 = no significant change and 5 = whole organ or tissue affected ([78]). Where grading was not appropriate, findings were scored ‘present’ (P) if seen. In addition, an approximate number of lung metastases was recorded in parentheses after P if present ([78]). […]

On the set-up of data set [3]: method as in PMID 19581737, PMID 22993376. As to conditions: cited from earlier work.
Data set [4] has as its system MMTV-PyMT tumors. In words: Tumor growth in MMTV-PyMT mice bearing established spontaneous tumors. It is filed as in vivo, mouse. The note with it: single agent, i.p. 25 µMol/kg/day. As to the method:
Vertical dashed black lines mark the start of treatment (day 0) and horizontal red line marks 250 mm^3. Solid lines represent individual tumors and mice. Images in panel (A) and (B) were created using BioRender. ** P<0.01.
as §1
MN-MCA1 sarcoma cells were orthotopically implanted into syngeneic C57Bl/6 mice for tumors. A total of 2.5 x 10^5 cells in 100 μL RPMI were injected subcutaneously into female mice. In MMTV-PyMT mice, tumors arose spontaneously. When tumors became palpable, volumes were measured every 2-4 days using digital caliper measurements of the long (L) and short (S) dimensions of the tumor. […]

For `Nc1ccn([C@@H]2O[C@H](CO)[C@@H](O)C2(F)F)c(=O)n1` [gemcitabine], in data set [1], the “abundance of CD8^+ T-cells in the TME” value is on record as “increase in the abundance of CD8^+ T-cells”. In addition, in data set [2], the “immune cell composition of the blood” value is “unaffected”. Further, the “patients with pulmonary inflammation” value in data set [3] is listed as “approximately 23%”.

As for “Sn (IV) mesoporphyrin IX dichloride [SnMP]”, the tumor growth entry in data set [4] is recorded as “did not control tumor growth”.
